Consider two compounds from PMC9184463, “Structural basis of ligand binding modes of human EAAT2” (Nature Communications, 2022).

As a reminder, the Km is the concentration of substrate that gives half-maximal velocity.

One experiment has as its system hEAAT2. The following applies: ref PMID: 7521911; cited from earlier work.
The next experiment deals with hEAAT1. The following applies: ref PMID: 7521911; cited from earlier work.
The next experiment has as its system hEAAT3. On the set-up: method as in PMID: 7521911. The following applies: ref PMID: 7521911; cited from earlier work.
The target of the next experiment is T1, hEAAT2 mutant L467I (Homo sapiens, UniProt P43004, L467I).
T1 construct: Strep Tag II (N); superfolder GFP (sfGFP) (N); expressed in transfected cells; host or cells: HEK293T
Nature of the experiment: whole-cell patch-clamp, hEAAT2 mutant L467I in HEK293T cells. As to conditions: for glutamate-induced current, normalized (MEAN): L467I, 0 mV. It counts as cell-based. On the procedure:
(§1) Human embryonic kidney 293T (HEK293T) cells were cultured in Dulbecco’s Modified Eagle Medium (DMEM, Gibco) media supplemented with 15% (v/v) fetal bovine serum (FBS, PAN-Biotech) at 37 °C with 5% CO2. HEK293T cells were grown in the culture dishes (d = 3.5 cm) (Thermo Fisher Scientific) for 24 h and then 1 μg hEAAT2 wild-type and mutant plasmids for per dishes were used to transiently transfect HEK293T using 0.7 μg Lipofectamine 2000 Reagent (Thermo Fisher Scientific). Cells were analyzed using electrophysiological experiments between 24 and 40 h after transfection at room temperature (21–25 °C).
(§2) Electrophysiological experiments were performed as described previously with a minor modification. External buffer contained 140 mM NaCl, 2 mM MgCl2, 2 mM CaCl2, and 10 mM HEPES (pH = 7.4 with NaOH and osmolarity of ∼310 mosmol L^−1) and while internal pipette solution comprised of 130 mM NaSCN, 2 mM MgCl2, 10 mM EGTA, 10 mM HEPES (pH = 7.4 with NaOH and osmolarity of ∼310 mosmol L^−1) and 10 mM glutamate. 50 mM WAY-213613 stock solutions were prepared in dimethyl sulfoxide (DMSO), followed by dilutions to working concentrations with the above-mentioned external buffer. […] Whole cell patch-clamp experiment recordings were made from isolated GFP-positive HEK293T cells (hEAAT2 wild type and mutants). In all, 3–6 MΩ was used to fire a polished pipette (Sutter Instrument). […] Cells were immersed in the above-mentioned external buffer supplemented with a specified concentration of glutamate or WAY-213613. Glutamate-induced anion current, Na^+-dependent anion leak current and glutamate transport current or WAY-213613 inhibited anion leak currents were recorded using an EPC-10 amplifier (HEKA Electronic) at a 20 kHz sample rate with low pass filter at 5 kHz. All experiments were executed at 0 mV. After the cell current was stabilized, glutamate or WAY-213613 was sustained at the indicated concentrations from external dosing for at least 6 s. Subsequently, the cell was washed away with external buffer to start a new round of applications or end the experiment. The plateau currents were used for the following calculations. For analysis, the data was acquired by PatchMaster program (HEKA Electronic) at 5 s after recording. Nonlinear dose–response relationships were fitted into a Michaelis–Menten-like equation shown as below to obtain the apparent Km and Ki values in the presence of glutamate or WAY-213613.1 I/Imax=Km/i/C+Km/i In this equation, I represent the current at different glutamate or inhibitor concentrations, and Imax represents the maximal current at the saturating concentration of glutamate or inhibitor. [C] represents the concentration of glutamate or inhibitor. Km/i represents the apparent constant.
On the technique in general: The patch-clamp technique gives a direct electrical read-out from membranes.

The target of a further experiment is T2, hEAAT2 mutant V468I (Homo sapiens, UniProt P43004, V468I).
T2 construct: Strep Tag II (N); superfolder GFP (sfGFP) (N); expressed in transfected cells; host or cells: HEK293T
The experiment in a line: whole-cell patch-clamp, hEAAT2 mutant V468I in HEK293T cells. Format: cell-based. As to conditions: for glutamate-induced current, normalized (MEAN): V468I, 0 mV. The method, then:
as §1, §2

Another experiment addresses T3, hEAAT2 mutant R478A (Homo sapiens, UniProt P43004, R478A).
T3 construct: Strep Tag II (N); superfolder GFP (sfGFP) (N); expressed in transfected cells; host or cells: HEK293T
Nature of the experiment: whole-cell patch-clamp, hEAAT2 mutant R478A in HEK293T cells. Format: cell-based. The method, then:
as §1, §2

Another experiment addresses T4, wild-type hEAAT2 (Homo sapiens, UniProt P43004).
T4 construct: Strep Tag II (N); superfolder GFP (sfGFP) (N); expressed in transfected cells; host or cells: HEK293T
Nature of the experiment: whole-cell patch-clamp of hEAAT2-associated anion current, wild-type hEAAT2 in HEK293T cells. Format: cell-based. On the procedure:
as §1, §2

A further experiment deals with T5, hEAAT2 mutant I464V (Homo sapiens, UniProt P43004, I464V).
T5 construct: Strep Tag II (N); superfolder GFP (sfGFP) (N); expressed in transfected cells; host or cells: HEK293T
Nature of the experiment: whole-cell patch-clamp, hEAAT2 mutant I464V in HEK293T cells. It counts as cell-based. As to conditions: for glutamate-induced current, normalized (MEAN): I464V, 0 mV. On the procedure:
as §1, §2

For a further experiment, the target named is T6, hEAAT2 mutant S441G (Homo sapiens, UniProt P43004, S441G).
T6 construct: Strep Tag II (N); superfolder GFP (sfGFP) (N); expressed in transfected cells; host or cells: HEK293T
Nature of the experiment: whole-cell patch-clamp, hEAAT2 mutant S441G in HEK293T cells. Format: cell-based. As to conditions: 0 mV; for glutamate-induced current, normalized (MEAN): S441G, normalized to maximal current. The method, then:
as §1, §2

The next experiment concerns the target T7, hEAAT2 mutant D475A (Homo sapiens, UniProt P43004, D475A).
T7 construct: Strep Tag II (N); superfolder GFP (sfGFP) (N); expressed in transfected cells; host or cells: HEK293T
Nature of the experiment: whole-cell patch-clamp, hEAAT2 mutant D475A in HEK293T cells. Format: cell-based. On the procedure: as §1, §2

Where [1] appears, read: 3 μM glutamate, normalized to current at 1000 μM.
Setting [2] is: 10 μM glutamate, normalized to current at 1000 μM.
Setting [3] is: 30 μM glutamate, normalized to current at 1000 μM.
Setting [4] is: 100 μM glutamate, normalized to current at 1000 μM.
Setting [5] is: 300 μM glutamate, normalized to current at 1000 μM.
Where [6] appears, read: 1000 μM glutamate, normalization reference.

T6 sequence (P43004 whole entry S441G): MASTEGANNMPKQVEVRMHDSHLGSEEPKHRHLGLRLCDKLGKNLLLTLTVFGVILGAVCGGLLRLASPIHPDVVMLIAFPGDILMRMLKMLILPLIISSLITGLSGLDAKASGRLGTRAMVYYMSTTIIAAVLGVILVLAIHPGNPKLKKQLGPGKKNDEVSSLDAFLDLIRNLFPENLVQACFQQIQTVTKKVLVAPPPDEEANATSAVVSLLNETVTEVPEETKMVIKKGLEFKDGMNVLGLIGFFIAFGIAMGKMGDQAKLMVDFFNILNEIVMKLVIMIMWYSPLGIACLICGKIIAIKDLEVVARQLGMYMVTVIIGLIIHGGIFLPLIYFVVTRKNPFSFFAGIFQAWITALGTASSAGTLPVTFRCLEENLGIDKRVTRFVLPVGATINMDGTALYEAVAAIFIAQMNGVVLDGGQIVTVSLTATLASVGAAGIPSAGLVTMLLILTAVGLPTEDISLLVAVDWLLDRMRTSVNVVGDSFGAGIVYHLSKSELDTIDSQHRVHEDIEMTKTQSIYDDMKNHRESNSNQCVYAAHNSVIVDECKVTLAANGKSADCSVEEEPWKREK
T7 sequence (P43004 whole entry D475A): as the sequence (P43004 whole entry S441G) above, with G441S, D475A counted along it
T2 sequence (P43004 whole entry V468I): as the sequence (P43004 whole entry S441G) above, with G441S, V468I counted along it
T5 sequence (P43004 whole entry I464V): as the sequence (P43004 whole entry S441G) above, with G441S, I464V counted along it
T1 sequence (P43004 whole entry L467I): as the sequence (P43004 whole entry S441G) above, with G441S, L467I counted along it
T3 sequence (P43004 whole entry R478A): as the sequence (P43004 whole entry S441G) above, with G441S, R478A counted along it
T4 sequence (P43004 whole entry): as the sequence (P43004 whole entry S441G) above, with G441S counted along it

With `N[C@@H](CC(=O)O)C(=O)O` [aspartate], the Km in the experiment on hEAAT2 was 54 µM; in the experiment on hEAAT1, 60 µM; in the experiment with hEAAT3, 47 µM.

On to `N[C@@H](CCC(=O)O)C(=O)O` [glutamate], for which the “glutamate-induced current, normalized (MEAN)” value is on record as 0.09492 on hEAAT2 mutant L467I (setting [1]); 0.2532 on hEAAT2 mutant L467I (setting [2]); 0.5328 on hEAAT2 mutant L467I (setting [3]); 0.7948 at hEAAT2 mutant L467I (setting [4]); 0.9242 on hEAAT2 mutant L467I (setting [5]); 1 at hEAAT2 mutant L467I (setting [6]). The “glutamate-induced current, normalized (MEAN)” value on hEAAT2 mutant V468I (setting [1]) is reported as 0.1059; at hEAAT2 mutant V468I (setting [2]), 0.2526; at hEAAT2 mutant V468I (setting [3]) it was 0.5136; at hEAAT2 mutant V468I (setting [4]) it was 0.8108; at hEAAT2 mutant V468I (setting [5]), 0.9282; on hEAAT2 mutant V468I (setting [6]) it was 1. Besides, the “glutamate-induced current, normalized (MEAN)” value came to 0.1101 at wild-type hEAAT2 (3 μM glutamate, WT, 0 mV, normalized to current at 1000 μM glutamate); 0.2265 at wild-type hEAAT2 (10 μM glutamate, WT, 0 mV, normalized to current at 1000 μM glutamate); 0.5388 at wild-type hEAAT2 (30 μM glutamate, WT, 0 mV, normalized to current at 1000 μM glutamate); 0.751 at wild-type hEAAT2 (100 μM glutamate, WT, 0 mV, normalized to current at 1000 μM glutamate); 0.9307 at wild-type hEAAT2 (300 μM glutamate, WT, 0 mV, normalized to current at 1000 μM glutamate); 1 on wild-type hEAAT2 (1000 μM glutamate, WT, 0 mV, normalization reference). For the same compound, the “glutamate-induced current, normalized (MEAN)” value amounted to 0.1004 on hEAAT2 mutant I464V (setting [1]); 0.2675 at hEAAT2 mutant I464V (setting [2]); 0.5257 on hEAAT2 mutant I464V (setting [3]); 0.7538 at hEAAT2 mutant I464V (setting [4]); 0.9218 at hEAAT2 mutant I464V (setting [5]); 1 on hEAAT2 mutant I464V (setting [6]). For the same compound, the “glutamate-induced current, normalized (MEAN)” value turned out to be 0.1494 on hEAAT2 mutant S441G (0.1 μM glutamate); 0.4931 on hEAAT2 mutant S441G (0.3 μM glutamate); 0.73 on hEAAT2 mutant S441G (1 μM glutamate); 0.9123 on hEAAT2 mutant S441G (3 μM glutamate); 1 on hEAAT2 mutant S441G (10 μM glutamate); 1.038 on hEAAT2 mutant S441G (30 μM glutamate). In addition, the “activation of anion current” value is “significantly activate anion current with similar efficacy as that of wild-type hEAAT2” on hEAAT2 mutant L467I (L467I mutant, glutamate in external solution); “significantly activate anion current with similar efficacy as that of wild-type hEAAT2” on hEAAT2 mutant V468I (V468I mutant, glutamate in external solution); “significantly activate anion current with similar efficacy as that of wild-type hEAAT2” at hEAAT2 mutant I464V (I464V mutant, glutamate in external solution). In addition, the “glutamate-related current density (MEAN)” value was 0.4954 pA/pF at hEAAT2 mutant R478A (1mM Glutamate, R478A, 0 mV, Na+ dependent leak current subtracted); -27.6784 pA/pF on wild-type hEAAT2 (1mM Glutamate, WT, 0 mV, Na+ dependent leak current subtracted); 1.113 pA/pF on hEAAT2 mutant D475A (1mM Glutamate, D475A, 0 mV, Na+ dependent leak current subtracted). In addition, the “activation of anion currents” value at hEAAT2 mutant R478A (R478A mutant, glutamate up to 1 mM) is recorded as “failed to activate anion currents”; on hEAAT2 mutant D475A (D475A mutant, glutamate up to 1 mM), “failed to activate anion currents”. Also, the Km with hEAAT2 was 97 µM; with hEAAT1 it was 48 µM; at wild-type hEAAT2 (wild-type hEAAT2, HEK293T, 0 mV, Michaelis-Menten-like fit, read-out: apparent Km (activation of anion current)) it was 30 ± 2.5 µM; in the experiment with hEAAT3, 62 µM; on hEAAT2 mutant S441G (S441G mutant, read-out: apparent Km), 400 ± 30 nM. Moreover, at wild-type hEAAT2 (wild-type hEAAT2), the “effect of substrate on anion leak currents” value was “increased the amplitudes of anion leak currents”.
